# Measured values reported in patent publication US20230218717A1, “Administration of CEBP-Beta Antagonist and Methods of Use” (Sapience Therapeutics, Inc., priority 2020, published 2023).
# Where no end group is shown, it is not given here.
# B1: ATF5: recombinant ATF5, activating transcription factor 5, binding partner of C/EBPβ (protein)
# chain: MSLLATLGLELDRALLPASGLGWLVDYGKLPPAPAPLAPYEVLGGALEGGLPVGGEPLAGDGFSDWMTERVDFTALLPLEPPLPPGTLPQPSPTPPDLEAMASLLKKELEQMEDFFLDAPPLPPPSPPPLPPPPLPPAPSLPLSLPSFDLPQPPVLDTLDLLAIYCRNEAGQEEVGMPPLPPPQQPPPPSPPQPSRLAPYPHPATTRGDRKQKKRDQNKSAALRYRQRKRAEGEALEGECQGLEARNRELKERAESVEREIQYVKDLLIEVYKARSQRTRSC
# Key:
# [1] = tested on: HL-60 promyelocytic leukemia cells; assay: Cytotoxicity in HL-60 cells
# Text: (§1) We hypothesized that modifications designed to enhance electrostatic interactions between the peptide and C/EBPβ would increase potency. A panel of 46 rationally-designed peptides probing the molecular packing of non-leucine amino acids of the peptide antagonist with that of the C/EBPβ bZIP domain were synthesized and screened for cytotoxic activity.
# [2] = Cytotoxicity in HL-60 cells
# Text: as §1
# [3] = target: C/EBPβ (plate-bound, competitive ELISA); assay: ELISA: 3.6 ng plate-bound C/EBPβ, ATF5 in solution
# Sequence of C/EBPβ (plate-bound, competitive ELISA) (P17676 whole entry): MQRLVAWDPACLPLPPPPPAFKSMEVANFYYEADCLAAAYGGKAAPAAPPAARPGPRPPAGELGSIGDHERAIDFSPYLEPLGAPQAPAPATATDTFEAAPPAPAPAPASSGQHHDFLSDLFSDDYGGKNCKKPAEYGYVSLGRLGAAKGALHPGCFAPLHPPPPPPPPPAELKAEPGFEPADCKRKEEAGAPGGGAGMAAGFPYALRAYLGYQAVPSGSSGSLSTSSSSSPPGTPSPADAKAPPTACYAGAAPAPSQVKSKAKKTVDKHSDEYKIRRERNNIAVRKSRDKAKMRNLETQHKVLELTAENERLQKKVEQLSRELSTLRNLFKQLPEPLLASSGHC
# C/EBPβ = C/EBPβ (Homo sapiens, UniProt P17676); assay: ELISA, ATF5 binding to plate-bound C/EBPβ; settings: 3.6 ng C/EBPβ plate-bound
# Sequence of C/EBPβ (P17676 whole entry, species assumed): as the sequence (P17676 whole entry) above
# Method: C/EBPβ (3.6 ng/well) was immobilized to a 384-well plate (Nunc MaxiSorp, ThermoSci) by overnight incubation at 4° C. Non-bound protein was removed by three washes with tris-buffered saline (TBS)+0.1% Tween (TBST), and wells were then blocked for 1 hr at 4° C. with 5% bovine serum albumin in TBS.
# Plate-bound ATF5 was detected by 1-hr incubations at 4° C. of 1:1000 dilution rabbit-anti-ATF5 antibody (ab60126, Abcam) followed by 1:1000 goat-anti-rabbit IgG-HRP antibody (ab6721, Abcam), with three washes with TBST after each antibody incubation, and 50 μL TMB substrate. The reaction was stopped by addition of 25 μL 2.5M sulfuric acid, and absorbance was detected at 450 nm using a SpectraMax M3 plate reader (Molecular Devices).
molecule,measurement,setting,value
"22-amino acid section of native ATF5 bZIP domain, LEGECQGLEARNRELKERAESV, and a 16-amino acid penetratin domain [precursor peptide]",EC50,[1],17.4 ± 0.5 µM
RQIKIWFQNRRMKWKKLEGRAQGLRAELRELEERAEAV [“winner” peptide],EC50,[2],5.5 ± 0.5 µM
same,increase in potency vs. the parent peptide,[1]; HL-60 cytotoxicity EC50,3.2 fold
recombinant ATF5,Kd,[3],0.001 µM
B1,Kd of ATF5 association with C/EBPβ,C/EBPβ,0.001 µM
